Patent US9683231B2, “RNAi-based method of drug screening and characterization” (Massachusetts Institute of Technology, priority 2010, dated 2017)

Legend:
[1] = tested on: Eμ-Mycp19^Arf−/− mouse lymphoma cells; test: Drug treatment and FACS viability (propidium iodide) to determine LD80-90; format: cell-based; details: concentration at which 80-90% of uninfected lymphoma cells were killed, lowest viability of 24, 48 and 72 h between 10% and 20%; for IC (80-90): Mus musculus, read-out: Concentration used (LD80-90)
[2] = tested on: lymphoma cells expressing shATM, shChk2 or shp53; test: shATM-Chk2-p53 resistance signature; format: cell-based, mouse; details: suppression of ATM, Chk2 and p53
Protocol: (3d) A comparison of the shTopoI and shTopoII response signatures for APG and NSC3852 with response signatures derived from established Topol (CPT and CPT11) and TopoII poisons (Dox, Mito and VP-16). […] In each case, one million cells were plated before treatment.
Eμ-Mycp19^Arf−/− cells were counted and seeded at 1 million cells per ml in 48-well plates and treated with various concentrations of drugs. To approximate therapeutic situations in which drug dose decreases over time, half of the volume from each experiment was removed and replenished with fresh medium every 24 h. Cells were analyzed by fluorescence-activated cell sorting (FACS), with propidium iodide as a viability marker. LD80-90 of drugs are defined as concentrations at which the lowest viability reading out of three FACS time points (24, 48 and 72 h) is between 10% and 20%. After drug dose was determined, Eμ-Mycp19^Arf−/− cells were infected with retroviruses encoding shRNAs targeting particular genes. Individual infected cell populations were counted and seeded at 1 million cells per ml in 48-well plates and treated with drugs using the aforementioned protocol. At 72 h, treated and untreated cells were analyzed by flow cytometry. GFP percentages of live (PI-negative) cells were recorded and used to calculate relative resistance index.
To compare the relative level of chemoresistance and sensitization conferred by each gene knockdown, the concept of RI (see definition above) was introduced, to more accurately analyze the GFP competition results. The value of RI is defined as X. The biological meaning of this factor X is that in a mixture of uninfected and infected (knockdown) cells, the infected (knockdown) cells will be X-fold as likely to survive drug treatment when compared to uninfected cells. By this definition of X, if one out of n uninfected cells survives a drug treatment, then X our of n infected cells should survive. If the total number of uninfected and infected cells are defined as T and the GFP percentage of untreated population are defined as G1, then the number of surviving, uninfected cells (un) can be defined as n−un=T×(1−G1)×1/n, and the number of surviving, infected cells (in) can be defined as n−in=Tx G1×X/n. […] From this equation, it can be derived that X=(G2−G1×G2)/(G1−G1×G2). This equation was used in the studies to compute RI values.

[3] = tested on: cells expressing shTopoI or shTopoII; test: shTopoI and shTopoII response signatures; format: cell-based, mouse; details: FIG. 3d
[4] = tested on: γ-H2AX; test: DNA damage response by western blot (γ-H2AX phosphorylation) in TopoI and TopoII knockdown cells; format: cell-based
[5] = tested on: shTopoII, shTopoI or vector control-expressing cells; test: Long-term survival assay, surviving cells 12 days after drug treatment; format: cell-based
Excerpt: Identification and functional characterization of ill-defined genotoxic drugs. […] (3b) The shATM-Chk2-p53 response signature for apigenin (APG) and NSC3852 (NSC). (3c) The branching pattern for the 18 reference compounds plus APG and NSC. APG clusters with the TopoII poisons Dox and VP-16, whereas NSC clusters with the Topol poison CPT. (3d) A comparison of the shTopoI and shTopoII response signatures for APG and NSC3852 with response signatures derived from established Topol (CPT and CPT11) and TopoII poisons (Dox, Mito and VP-16). […] In each case, one million cells were plated before treatment. Data shown are mean±s.e.m. from three Independent experiments.

[6] = tested on: Eμ-Mycp19^Arf−/− lymphoma cells expressing shRNAs targeting the Bcl2 family, p53 and its activating kinases; test: 29-shRNA GFP competition assay, resistance index (RI), clustering and K-nearest-neighbors; format: cell-based, mouse
[7] = tested on: Bim; test: Bim expression level by western blot; format: cell-based, mouse; details: lymphoma cells treated for 6 or 9 hours
Protocol: 9b, Lymphoma cells were treated with SAHA or DAC for 6 or 9 hours. Bim expression level was analyzed by western blot.

SMILES | IC (80-90) [1] [µM] | shATM-Chk2-p53 resistance signature [2] | shTopoI and shTopoII resistance and sensitivity pattern [3] | induction of DNA damage ([4]; TopoII-deficient cells) | long-term survival ([5]; TopoII deficiency) | Concentration used (LD80-90) [1] [µM] | induction of DNA damage ([4]; TopoI-deficient cells) | long-term survival ([5]; TopoI deficiency) | log2RI ([6]; shRNA targeting Bim (Bim-dependence)) | effect of suppression of the Bim transcription regulator Chop on drug response ([6]; shRNA targeting Chop, FIG. 1d) | log2RI ([6]; shRNA targeting p53 (p53-independence)) | levels of the proapoptotic BH3-only protein Bim [7]
O=c1cc(-c2ccc(O)cc2)oc2cc(O)cc(O)c12 [Apigenin] | 0.1 | strong shATM-Chk2-p53 resistance signature | shTopoII resistance and shTopoI sensitivity | failed to induce DNA damage | significant protection |  |  |  |  |  |  | 
O=Nc1ccc(O)c2ncccc12 [NSC3852] |  | strong shATM-Chk2-p53 resistance signature | characteristic pattern of resistance, similar to established TopoI poisons camptothecin and irinotecan |  |  | 1.7 | failed to induce DNA damage | significantly protected |  |  |  | 
O=C(CCCCCCC(=O)Nc1ccccc1)NO [Vorinostat, suberoylanilide hydroxamic acid] | 0.2 |  |  |  |  |  |  |  | ≈ 2 | resistance | ≈ 0 | increase
